Assay results: patent EP0476120B1, “PROCESS FOR PREPARING EQUIMOLAR SALTS OF ASPARTIC ACID AND MAGNESIUM, MAGNESIUM ASPARTATE SALT OBTAINED BY SAID PROCESS AND ITS APPLICATIONS” (LA[…] SPINDLER, priority 1990, dated 1991)
Like-named read-outs stand apart in the source and are kept apart here.

Experiments:
souris [1] = details: mouse; for Nombre de passages "punis" (moyenne): 60 min before test, controls 5,8
souris [2] = details: mouse
Description: Ces études ont été réalisées chez des souris mâles, de souche NMRI-Han, réparties au hasard en lots de 15 souris (séries traitées) et 20 souris (série contrôle).
La motilité a été mesurée à l'aide d'un actimètre "type Dews" (Brit. J. Pharmacol. 1953, 8 : 46). Les animaux sont placés un par un dans une enceinte rectangulaire en matière plastique transparente (mesures intérieures : L = 24 cm, l = 15 cm, h = 9,5 cm), couverte par un grillage métallique et traversée par deux faisceaux infra-rouges perpendiculaires situés à 2 cm au-dessus du plancher (médianes de l'enceinte); ces deux faisceaux viennent frapper deux cellules photo-électriques reliées à un compteur d'impulsions déclenché à chaque fois que l'animal coupe un des faisceaux. Les actimètres ont été placés dans une pièce non insonorisée mais en dehors de tout bruit aigu, à une température de l'ordre de 21°C.
L'activité motrice a été mesurée au cours des 5 premières minutes (exploration non anxiogène) puis entre 5 et 15 minutes (activité basale non anxiogène).
Les doses ont été calculées selon une progression géométrique de base 700 (correspondant au 1/10 de la DL 50) et de raison 2, soit respectivement 175, 350, 700 et 1400 mg.kg⁻¹.
Les traitements sont réalisés 60 minutes avant le test.
Il est identique à celui décrit dans l'exemple précédent.
Les doses ont été calculées selon une progression géométrique de base 700 (correspondant au 1/10 de la DL 50) et de raison 2, soit respectivement 10,95; 21,9; 43,8; 87,5; 175; 350; 700 mg/kg. […] Les derniers traitements ont été réalisés 60 minutes avant le test.

[3] = repeated daily dosing (13 days), 10.95 mg/kg P.O., last dose 60 min before test
[4] = repeated daily dosing (13 days), 21.9 mg/kg P.O., last dose 60 min before test
[5] = repeated daily dosing (13 days), 43.8 mg/kg P.O., last dose 60 min before test, 43.8 mg/kg
[6] = repeated daily dosing (13 days), 43.8 mg/kg P.O., last dose 60 min before test, listed as Mag, 43.8 mg/kg
[7] = repeated daily dosing (13 days), 87.5 mg/kg P.O., last dose 60 min before test
[8] = repeated daily dosing (13 days), 175 mg/kg P.O., last dose 60 min before test
[9] = repeated daily dosing (13 days), 350 mg/kg P.O., last dose 60 min before test, 350 mg/kg
[10] = repeated daily dosing (13 days), 350 mg/kg P.O., last dose 60 min before test, listed as Mag, 350 mg/kg
[11] = repeated daily dosing (13 days), 700 mg/kg P.O., last dose 60 min before test
[12] = single dose 175 mg.kg⁻¹ P.O., 60 min before test
[13] = single dose 350 mg.kg⁻¹ P.O., 60 min before test
[14] = single dose 700 mg.kg⁻¹ P.O., 60 min before test
[15] = single dose 700 mg.kg⁻¹ P.O., 60 min before test, listed as Mag
[16] = single dose 1400 mg.kg⁻¹ P.O., 60 min before test

α-β-aspartate de magnésium was tested, and the “Nombre de passages "punis" (moyenne)” value (souris [1]; single dose 300 mg.kg⁻¹ P.O.) was “n'accroît pas significativement”, the “Nombre de passages "punis" (moyenne)” value (souris [1]; single dose 300 mg.kg⁻¹ P.O., listed as Mag) was 6,4 and the “Nombre de passages "punis" (moyenne)” value (souris [1]; single dose 600 mg.kg⁻¹ P.O.) was “accru significativement”. The “Nombre de passages "punis" (moyenne)” value (souris [1]; single dose 600 mg.kg⁻¹ P.O., listed as Mag) was 8,3, the “Nombre de passages "punis" (moyenne)” value (souris [1]; single dose 1200 mg.kg⁻¹ P.O.) was “accru significativement” and the “Nombre de passages "punis" (moyenne)” value (souris [1]; single dose 1200 mg.kg⁻¹ P.O., listed as Mag) was 7,5. The “dose optimum (propriétés tranquillisantes mineures)” value (souris [1]; single dose P.O.) was 600 mg/kg, the “Activité motrice 0-5 minutes, nombre de coupures de faisceaux (moyenne)” value (shortened to “Activité motrice 0-5 minutes”) (souris [2]; [3]) was 98 and the “Activité motrice 0-15 minutes, nombre de coupures de faisceaux (moyenne)” value (“Activité motrice 0-15 minutes” below) (souris [2]; [3]) was 221. For the same substance, the “Activité motrice 5-15 minutes, nombre de coupures de faisceaux (moyenne)” value (shortened to “Activité motrice 5-15 minutes”) (souris [2]; [3]) was 123, the “Activité motrice 0-5 minutes” value (souris [2]; [4]) was 104 and the “Activité motrice 0-15 minutes” value (souris [2]; [4]) was 237. For the same substance, the “Activité motrice 5-15 minutes” value (souris [2]; [4]) was 133, the “Activité motrice 0-15 minutes” value (souris [2]; repeated daily dosing (13 days), 43.8 mg/kg P.O., last dose 60 min before test) was 232 and the “Activité motrice 0-5 minutes” value (souris [2]; [5]) was “élévation significative”. For the same substance, the “Activité motrice 5-15 minutes” value (souris [2]; [5]) was “élévation significative”, the “Activité motrice 0-5 minutes” value (souris [2]; [6]) was 104 and the “Activité motrice 5-15 minutes” value (souris [2]; [6]) was 128. For the same substance, the “Activité motrice 0-5 minutes” value (souris [2]; [7]) was 99, the “Activité motrice 0-15 minutes” value (souris [2]; [7]) was 195 and the “Activité motrice 5-15 minutes” value (souris [2]; [7]) was 96. For the same substance, the “Activité motrice 0-5 minutes” value (souris [2]; [8]) was 106, the “Activité motrice 0-15 minutes” value (souris [2]; [8]) was 228 and the “Activité motrice 5-15 minutes” value (souris [2]; [8]) was 122. The “Activité motrice 0-15 minutes” value (souris [2]; repeated daily dosing (13 days), 350 mg/kg P.O., last dose 60 min before test) was 248, the “Activité motrice 0-5 minutes” value (souris [2]; [9]) was “élévation significative” and the “Activité motrice 5-15 minutes” value (souris [2]; [9]) was “élévation significative”. For the same substance, the “Activité motrice 0-5 minutes” value (souris [2]; [10]) was 107, the “Activité motrice 5-15 minutes” value (souris [2]; [10]) was 141 and the “Activité motrice 0-5 minutes” value (souris [2]; [11]) was 104. For the same substance, the “Activité motrice 0-15 minutes” value (souris [2]; [11]) was 230, the “Activité motrice 5-15 minutes” value (souris [2]; [11]) was 126 and the “Activité motrice 0-5 minutes” value (souris [2]; [12]) was 100. For the same substance, the “Activité motrice 0-15 minutes” value (souris [2]; [12]) was 172, the “Activité motrice 5-15 minutes” value (souris [2]; [12]) was 72 and the “Activité motrice 0-5 minutes” value (souris [2]; [13]) was 96. The “Activité motrice 0-15 minutes” value (souris [2]; [13]) was 213, the “Activité motrice 5-15 minutes” value (souris [2]; [13]) was 117 and the “Activité motrice 0-5 minutes” value (souris [2]; [14]) was “augmentation statistiquement significative”. The “Activité motrice 0-15 minutes” value (souris [2]; [14]) was 258, the “Activité motrice 5-15 minutes” value (souris [2]; [14]) was “augmentation statistiquement significative” and the “Activité motrice 0-5 minutes” value (souris [2]; [15]) was 113. The “Activité motrice 5-15 minutes” value (souris [2]; [15]) was 145, the “Activité motrice 0-5 minutes” value (souris [2]; [16]) was 110 and the “Activité motrice 0-15 minutes” value (souris [2]; [16]) was 214. The “Activité motrice 5-15 minutes” value (souris [2]; [16]) was 104.
